Measurements taken from patent publication US20120232107A1, “NON-PEPTIDE ANTAGONISTS OF GASTRIN RELEASING PEPTIDE” (The Government of the United States of America as …, priority 2003, published 2012).
Entries after “also recorded” stand apart in the source; their conditions may differ.

How the values were obtained:
[1] = system: H1299 xenograft; assay: In vivo tumor growth (xenograft experiment); design: species or system mice
Description: Thirty female athymic nude mice from the NIH colony in Frederick (MD) were injected subcutaneously with 1.0×10^7 H1299 cells/mouse. Two weeks later, all the mice had developed palpable tumors under the skin and at this time they were randomly divided in three groups. Three times a week, each individual tumor was measured (length, height, thickness) and every mouse received an intratumoral injection, according to their group. Group 1 (control) received 100 μl PBS (negative control); group 2 received 100 μl 0.5 μM compound XV′ (77427) in PBS; and group 3 received 100 μl 5 μM compound XV′ (77427) in PBS. When the tumor burden became unbearable (larger than 2000 mm^3), the mice were sacrificed.

[2] = system: cell line A345; assay: Clonogenic assay in soft agar; format: cell-based; conditions: A345, 3 weeks
Description: B. Cells from the cell line […] were grown in substrate-independent conditions (clonogenic assay) as previously published (Iwai et al., supra).

[3] = biological target: T1, GRP (Homo sapiens, UniProt P07492); assay: IP3 analysis for GRP in H-1299 cells; format: cell-based; conditions: peptide GRP; IP3 or Ca2+ levels induced by GRP in H1299 cells
T1 construct: GRP is a 27 amino acid peptide; purchased Peninsula (S. Carlos, Calif.); host or cells: synthetic peptide
T1 sequence (P07492 24-50 limits assumed): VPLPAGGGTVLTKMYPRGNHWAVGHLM
Description: This cell line was obtained from ATCC and cultured as the other cell lines. The signal transduction pathway for GRP includes elevation of intracellular levels of IP3 and Ca^2+ and these were investigated as previously shown (Ryan et al. (1998) J. Biol. Chem., 273, 13613-13624). Briefly, to quantify IP3, contents cells were subcultured into 24-well plates (5×10^4 cells/well). After a 24 h incubation period at 37° C., the cells were incubated with 3 μCi/ml myo-[^3H]inositol in growth medium supplemented with 2% FBS for an additional 24 h. Incubation volumes were 500 μl of assay buffer/well containing 135 mM sodium chloride, 20 mM HEPES (pH 7.4), 2 mM calcium chloride, 1.2 mM magnesium sulfate, 1 mM EGTA, 20 mM lithium chloride, 11.1 mM glucose, and 0.05% BSA (v/v) with or without any of the molecules studied at 37° C. for 30 min. Experiments were terminated with 1 ml of ice-cold hydrochloric acid/methanol (0.1%, v/v). [^3H]IP3 was eluted off Dowex AG-1-X8 anion exchange columns with 2 ml of 1 mM ammonium formate and 100 mM formic acid. Each of the eluates was collected and mixed with 10 ml of scintillation mixture (BioSafe, Research Products International Corp, Mount Prospect, Ill.), and the radioactivity was measured in a LS 3801 β counter (Beckman, Somerset, N.J.).

[4] = system: Bovine retinal microvascular endothelial cells; assay: Cord formation assay in Matrigel; format: cell-based
Description: Formation of tube-like structures was performed as described in Kubota et al. (1988) J. Cell Biol. 107, 1589-1598; Nam et al. (2003) Phytother. Res. 17, 107-111; and Macpherson et al. (2003) Mol Cancer Ther 2, 845-54. Briefly, a thin layer of Matrigel (Collaborative Biomedical Products, Bedford, Mass.) was allowed to polymerize at the bottom of 24-well plates. […] After an overnight incubation at 37° C., the tubular structures were photographed (3 pictures per well at 10×) and the number of knots per photographic field were counted as a measure of lattice complexity.

[5] = system: GRP-induced angiogenesis; assay: Directed in vivo angiogenesis assay (DIVAA); design: species or system mice; conditions: 1 nM GRP in angioreactors, nude mice, 11 days
Description: Analysis and quantitation of angiogenesis was done using DIVAA as previously described (Martinez et al. (2002) J Natl Cancer Inst 94, 1226-37). Briefly, 10 mm long surgical-grade silicone tubes with only one end open (angioreactors) were filled with 20 μl of matrigel alone or mixed with GRP and the small molecules at the indicated concentrations. After the matrigel solidified, the angioreactors were implanted into the dorsal flanks of athymic nude mice (NCI colony). After 11 days, the mice were injected iv with 25 mg/ml FITC-dextran (100 μl/mouse, Sigma) 20 min before removing angioreactors. Quantitation of neovascularization in the angioreactors was determined as the amount of fluorescence trapped in the implants and was measured in a HP Spectrophotometer (Perkin Elmer).

[6] = system: lung cancer cell line H1299; assay: Proliferation assay (growth inhibition MTT); format: cell-based; conditions: H1299, serum-free medium, 5 days
Description: A. Tumor cells (from a lung cancer cell line, H1299) were seeded in 96-well plates at a density of 2.0×10^5 cells per well in serum-free medium containing different concentrations of the test agent, the small molecule inhibitor compound XV′ (77427). After 5 days in culture, the number of viable cells per well was estimated by the growth inhibition MTT assay (as reported in Iwai et al. (1999) Lung Cancer 23, 209-22).

Nc1nc(Cl)cc(NCCO)n1 [compound 77427]
tumor size ([1]; after a single intratumoral injection): significantly reduced
tumor size ([1]; after the second intratumoral injection): all but disappeared
number of colonies in soft agar [2]: reduces the number of colonies
Action on second messengers [3]: Antagonists
number of knots per photographic field ([4]; 5 nM GRP and 0.5 μM compound added together): 12±4
complexity of the tubular lattice ([4]; 5 nM GRP plus 0.5 μM compound): marked decrease; also recorded: reduces network complexity; also recorded: greatly reduced
Biological activity (cord formation) ([4]; GRP-induced cord formation): Inhibits cord
inhibition of GRP-induced angiogenesis [5]: dose-dependent inhibition
inhibition of GRP-induced angiogenesis ([5]; listed as XV′): inhibited
growth inhibitory action on lung cancer cells (MTT) [6]: modest dose-dependent growth inhibitory action
